Assay [1] relates to DU-145. Put plainly: 3D clonogenic assay (soft agar). The settings on record: for IC50: Homo sapiens, DU-145, read-out: Cabazitaxel IC50, DU-145, 3D clonogenic assay.
For a further assay, the system named is 22Rv1. The experiment in a line: 3D clonogenic assay (soft agar). The settings on record: for IC50: Homo sapiens, 22Rv1, read-out: Cabazitaxel IC50, 22Rv1, 3D clonogenic assay.
A further assay concerns DU-145DOC10. Put plainly: 3D clonogenic assay (soft agar). The settings on record: for Relative resistance: DU-145DOC10 vs DU-145; for IC50: Homo sapiens, DU-145DOC10. Type of assay: cell-based, human.
In a further assay the test system is 22Rv1DOC8. Put plainly: 3D clonogenic assay (soft agar). The format is cell-based, human. Particulars: 3D clonogenic assay; for IC50: 22Rv1DOC8, read-out: Cabazitaxel IC50; for Relative resistance: 22Rv1DOC8 vs 22Rv1.
The subject of another assay is MAXFTN CAL-51. The experiment in a line: cells. The settings on record: Homo sapiens, CAL-51, read-out: Relative ritonavir IC50.
A further assay deals with LXFA EKVX. Put plainly: cells. Particulars: Homo sapiens, read-out: Relative ritonavir IC50.
Assay [2] concerns DU-145. Particulars: read-out: IC50, single agent ritonavir; DU-145 proliferation assay; cited from earlier work.
The subject of a further assay is MAXFLB MCF7. The experiment in a line: cells. Particulars: Homo sapiens, MCF7, read-out: Relative ritonavir IC50.
The subject of another assay is PRXF DU-145. The experiment in a line: 2D proliferation assay (CellTiter-Blue). Type of assay: cell-based, human. The settings on record: 2D proliferation assay.
In the next assay the test system is MAXFTN MX1. The experiment in a line: 2D proliferation assay (CellTiter-Blue). The settings on record: read-out: Relative ritonavir IC50.
The next assay relates to GXA NUGC-4. The experiment in a line: cells. Particulars: Homo sapiens, NUGC-4, read-out: Relative ritonavir IC50.
In the next assay the test system is LXFA 737. The experiment in a line: 2D proliferation assay (CellTiter-Blue). Particulars: read-out: Relative ritonavir IC50.
A further assay relates to OVXF EFO-27. The experiment in a line: 2D proliferation assay (CellTiter-Blue). Particulars: Homo sapiens, EFO-27, read-out: Relative ritonavir IC50.
For the next assay, the system named is DU-145 cells. Particulars: NCI60 panel, read-out: IC50 value, anti-proliferative effect; cited from earlier work.
The test system of the next assay is OVXF 899. Put plainly: cells. Particulars: read-out: Relative ritonavir IC50.
The next assay deals with GXA 3011. Put plainly: cells. The settings on record: read-out: Relative ritonavir IC50.
For another assay, the system named is PC-3M. The experiment in a line: 2D proliferation assay (CellTiter-Blue). Particulars: Homo sapiens, read-out: Relative ritonavir IC50.
In another assay the test system is OVXF NCI-ADR-RES. Put plainly: cells. Particulars: Homo sapiens, read-out: Relative ritonavir IC50.
Another assay deals with PC-3. The experiment in a line: 2D proliferation assay (CellTiter-Blue). The settings on record: Homo sapiens, read-out: Relative ritonavir IC50, PC-3. Type of assay: cell-based.
Another assay relates to 15 tumor cell lines. The experiment in a line: 2D proliferation assay (CellTiter-Blue), panel of 15 tumor cell lines. Particulars: at the concentration ranges tested; 2D proliferation assay.
For a further assay, the system named is PRXF 22Rv1. Put plainly: 2D proliferation assay (CellTiter-Blue). The settings on record: Homo sapiens, read-out: Relative ritonavir IC50; PRXF 22Rv1; 2D proliferation assay. The format is cell-based.
For a further assay, the system named is MAXFTN MCF 10A. Put plainly: cells. Particulars: Homo sapiens, read-out: Relative ritonavir IC50.

Read-outs that look alike come from different tables or passages of the source.

As to `CO[C@H]1C(=O)[C@]2(C)[C@@H](OC)C[C@H]3OC[C@@]3(OC(C)=O)[C@H]2[C@H](OC(=O)c2ccccc2)[C@]2(O)C[C@H](OC(=O)[C@H](O)[C@@H](NC(=O)OC(C)(C)C)c3ccccc3)C(C)=C1C2(C)C` [Cabazitaxel], the IC50 came out at 0.3 nM in the assay on DU-145 [1] (+ ritonavir 10 µM); 0.6 nM in the assay with DU-145 [1] (without ritonavir); 0.7 nM in the assay on 22Rv1 (+ ritonavir 10 µM); 0.7 nM in the assay with 22Rv1 (+ ritonavir 32 µM); 0.7 nM with 22Rv1 (without ritonavir); 0.6 nM with DU-145DOC10 (3D clonogenic assay, + ritonavir 10 µM, read-out: Cabazitaxel IC50). For the same compound, the IC50 is 1.5 nM in the assay on DU-145DOC10 (3D clonogenic assay, without ritonavir, read-out: Cabazitaxel IC50); 1.46 nM in the assay on DU-145DOC10 (cabazitaxel alone, Figure 7A, read-out: IC 50); 0.7 nM with 22Rv1DOC8 (+ ritonavir 32 µM); 5.2 nM in the assay on 22Rv1DOC8 (Homo sapiens, + ritonavir 10 µM); 0.6 nM in the assay on 22Rv1DOC8 (Homo sapiens, + ritonavir 32 µM); 9.5 nM in the assay with 22Rv1DOC8 (Homo sapiens, without ritonavir). Further, the Relative resistance in the assay with DU-145DOC10 (cabazitaxel + ritonavir 10 µM, 3D clonogenic assay) is reported as 1.0; in the assay on DU-145DOC10 (cabazitaxel without ritonavir, 3D clonogenic assay) it was 2.5; in the assay with 22Rv1DOC8 (cabazitaxel + ritonavir 10 µM), 7.4; in the assay on 22Rv1DOC8 (cabazitaxel + ritonavir 32 µM), 1.0; in the assay with 22Rv1DOC8 (cabazitaxel without ritonavir), 13.6.
On to `COc1cc2c(cc1OC)CN(CCc1ccc(NC(=O)c3cccc4c(=O)c5cccc(OC)c5[nH]c34)cc1)CC2` [Elacridar], for which the “effect of elacridar alone on parental cells” value is “no effect” with DU-145 [1] (DU-145 parental, data not shown) and “no effect” in the assay on 22Rv1 (22Rv1 parental, data not shown).
`CC(C)c1nc(CN(C)C(=O)N[C@H](C(=O)N[C@@H](Cc2ccccc2)C[C@H](O)[C@H](Cc2ccccc2)NC(=O)OCc2cncs2)C(C)C)cs1` [Ritonavir]: the IC50 in the assay on MAXFTN CAL-51 was > 30000 nM; in the assay with LXFA EKVX, > 30000 nM; in the assay on DU-145 [2] it was 3000 nM; with MAXFLB MCF7, > 30000 nM; in the assay on PRXF DU-145 (Homo sapiens, DU-145, read-out: Relative ritonavir IC50, PRXF DU-145), 16200 nM; with PRXF DU-145 (read-out: Relative ritonavir IC50, PRXF DU-145), 16300 nM. In addition, the IC50 in the assay on MAXFTN MX1 is > 22600 nM; in the assay on GXA NUGC-4, 1270 nM; with LXFA 737, > 30000 nM; with OVXF EFO-27 it was > 30000 nM; in the assay on DU-145 cells, > 20000 nM; with OVXF 899, 25700 nM. Further, the IC50 with GXA 3011 is > 30000 nM; with PC-3M it was 23300 nM; in the assay on OVXF NCI-ADR-RES, > 30000 nM; in the assay with PC-3, 21700 nM; in the assay with PRXF 22Rv1, 29300 nM; with MAXFTN MCF 10A, > 30000 nM. For the same compound, the single agent activity entry in the assay with 15 tumor cell lines is listed as “no considerable or only low activity”.
